According to PubChem BioAssay (NCI):
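1) Cells in 96-well plates. 2) Compound, 48 h, 5 concentrations. 3) Linear interpolation between surrounding doses. 4) Unreached endpoint = highest concentration. GI50 = concentration required for 50% inhibition of growth. TGI marks complete inhibition of growth.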

System: MDA-MB-468 breast
Assay: NCI anticancer screen, dose series, 48 h

Row | Compound | GI50 | TGI
1 | N#Cc1ccnc(N2C(=O)CC[C@H]2C(=O)N(c2cncc(F)c2)[C@H](C(=O)NC2CC(F)(F)C2)c2ccccc2Cl)c1 | 28.4 µM | > 100 µM
2 | COc1ccc(/C=C/c2n[nH]c3ccc(N4CCOC4=O)cc23)cc1 | 2.44 µM | 4.72 µM
3 | COc1ccccc1CNCCCN1C(=O)c2ccc3c4c(ccc(c24)C1=O)C(=O)N(CCCNCCCN)C3=O | 0.246 µM | 2.24 µM
4 | Cc1ccc(C)c(-c2csc(Nc3ccc(C)c(C)c3)n2)c1 | 63.1 µM | > 100 µM
5 | Cn1cc(C2=C(c3cn(CCN)c4ccccc34)C(=O)NC2=O)c2ccccc21 | 4.73 µM | 13.4 µM
6 | C=C1C(=O)O[C@H]2[C@H]1CC/C(COC(=O)NCc1c[nH]c3ccc(Cl)cc13)=C\CC[C@@]1(C)O[C@@H]21 | 0.913 µM | 2.5 µM
7 | CCCc1nc2c(C)cc(-c3nc4ccccc4n3C)cc2n1Cc1ccc(-c2ccccc2C(=O)O)cc1 | 37.4 µM | > 100 µM
8 | CC(=O)N=c1ccc2nc3c(cc(N)c4ccccc43)oc-2c1 | 0.274 µM | 1.4 µM
9 | CCCCCCCC[N+](C)(CCCCCCCC)CCCCCCCC | 0.202 µM | 0.901 µM
10 | COc1cc(-c2cc(-c3nc4ccc(Cl)cc4[nH]3)[nH]n2)cc(OC)c1OC | 2.33 µM | 13.5 µM
11 | COC1=CC(c2ccc[nH]2)=N/C1=C\c1[nH]c(C)c(C(=O)CCCCC(=O)Nc2ccccc2)c1C | 1.72 µM | 3.66 µM
12 | CSc1nc2sc3cc(Cl)ccc3n2c(=N)c1C#N | 2.13 µM | 20 µM
13 | COc1ccc(-c2nc(-c3nc4ccc(OC)cc4[nH]3)cc3c2[nH]c2ccccc23)cc1 | 3.16 µM | > 100 µM
14 | COC(=O)CCC/C=C\C[C@H]1C=CC(=O)/C1=C/C[C@@H](O)C/C=C\CC(F)(F)F | 1.74 µM | 3.77 µM
15 | NCCC(O)(P(=O)(O)O)P(=O)(O)O | > 100 µM | > 100 µM
16 | CC(C)n1c2c([n+](C)c1/C=C/c1ccccc1)C(=O)c1ccccc1C2=O | < 0.01 µM | 0.0148 µM

Row | Compound | GI50 | TGI
17 | CCCN(CCC)c1ccc(/C=N/NC(=O)c2cccnc2)c(Cl)c1 | 0.197 µM | 0.631 µM
18 | COc1ccc(NC(=O)c2sc3nc(C)c(C(O)c4ccccc4)cc3c2N)cc1 (stereo unspecified) | 1.9 µM | 70.1 µM
19 | Cc1ccc(S(=O)(=O)N2CCc3ccc(O)c4c3C2Cc2cc(Cl)ccc2-4)cc1 (stereo unspecified) | 0.707 µM | 1.92 µM
20 | CC[C@]12C=CCN3CC[C@]4(C(=C(C(=O)OC)C1)Nc1cc5c(cc14)[C@@H]1[C@H](O5)[C@@H](O)[C@@]4(CC)CC(C(=O)OC)=C5Nc6cc(OC)ccc6[C@@]56CCN1[C@@H]46)[C@@H]32 | 0.0944 µM | 1.34 µM
21 | COc1ccc([N+](=O)[O-])c(S(=O)(=O)c2ccc(Cl)cc2)n1 | 1.93 µM | 4.76 µM
22 | Nc1c(C(=O)Nc2ccccc2Cl)sc2nc3c(cc12)CCCCCC3 | 2.25 µM | 12 µM
23 | COc1cc(/C=C2\COc3ccc(O)c(O)c3C2=O)cc(OC)c1 | 1.91 µM | 6.69 µM
24 | COc1ccc(C2=NN(C(C)=O)C(c3cn(-c4ccccc4)nc3-c3ccc(Cl)cc3)C2)cc1 (stereo unspecified) | > 100 µM | > 100 µM
25 | CCOC(=O)c1c(C(F)(F)F)n([O-])c2ccc(OC)cc2[n+]1=O | 2.58 µM | 7.41 µM
26 | COc1cc(C(=O)c2cc3c(cc2C)OCO3)cc(OC)c1OC | 0.0311 µM | 
27 | CCOC(=O)c1sc(Nc2ccc(Cl)cc2)nc1C | 1.56 µM | 4.24 µM
28 | O=C(CCCCCCNC(=O)C(O)(O)C(F)(F)F)Nc1ccc(Br)cc1 | 0.821 µM | 2.68 µM
29 | COC(=O)C1=C(C(=O)OC)C23C=C(C)C1C2=C(C)C1(CC1)[C@@](C)(O)C3=O (stereo partly specified) | 0.181 µM | 0.421 µM
30 | C[C@H]1[C@H](C)CC[C@]2(C(=O)O)CC[C@]3(C)C(=CC[C@@H]4[C@@]5(C)C/C(=C/c6ccco6)C(=O)C(C)(C)[C@@H]5CC[C@]43C)[C@H]12 | 4.07 µM | 17.4 µM
31 | Nc1ccc(/C=N/Nc2ccnc3c(N)cccc23)c2cccnc12 | 1.39 µM | 2.99 µM
